Measured values from patent US20210244735A1, “COMPOSITIONS AND METHODS FOR TREATING MYELOFIBROSIS” (Impact Biomedicines, Inc., priority 2010, published 2021).
Entries after “also recorded” stand apart in the source; their conditions may differ. Where a name gives a salt, the structure may show the parent alone. Read-outs that look alike come from different tables or passages of the source. Marks after values point to notes of the source that are not given here.

Tested on: subjects with MF
Conditions: for discontinuation: adverse event: number of subjects
[1] = at least possibly related, All Subjects (n=59)
[2] = at least possibly related, All Subjects, not transfusion dependent at study entry (n=37)
[3] = at least possibly related, MTD Cohort (n=40)
[4] = at least possibly related, MTD Cohort, not transfusion dependent at study entry (n=24)
[5] = at least possibly related, MTD cohort
[6] = at least possibly related, overall
[7] = number of patients who started at ≥680 mg
[8] = patients who started at ≥680 mg
[9] = started at ≥680 mg, 24 patients not requiring RBC transfusions at baseline
[10] = subject 106-024, 800/680 mg/day, onset day 87, recovered/resolved
[11] = treatment-emergent laboratory finding, MTD subjects (N=40)
[12] = treatment-emergent, MTD subjects (N=40)

Cc1cnc(Nc2ccc(OCCN3CCCC3)cc2)nc1Nc1cccc(S(=O)(=O)NC(C)(C)C)c1 [TG101348, N-tert-butyl-3-[(5-methyl-2-{[4-(2-pyrrolidin-1-ylethoxy)phenyl]amino}pyrimidin-4-yl)amino]benzenesulfonamide dihydrochloride monohydrate]
patients who discontinued treatment due to toxicity (59 patients, median follow-up 12 weeks): 7
subjects with serious adverse events considered at least possibly related (MF-TG101348-001 and -002): 8 subjects
Grades 3/4 asymptomatic increase in ALT (MTD cohort): 8%
Grades 3/4 asymptomatic increase in AST (MTD cohort): 3%
Grades 3/4 asymptomatic increase in alkaline phosphatase (MTD cohort): 0%
Grades 3/4 asymptomatic increase in creatinine (MTD cohort): 0%
Grades 3/4 asymptomatic increase in serum lipase (MTD cohort): 15%
subjects who required dose-reduction during the first 6 cycles (MTD cohort (n=40)): 70%
Anemia: New Transfusion Requirement on Study (MTD subjects not transfusion dependent at baseline (N=24), transfusion on at least 2 occasions for Hb <10 g/dL): 16 (67%) subjects (%)
maximum tolerated dose (MTD) (Phase I, myelofibrosis): 680 mg
Grade 3/4 neutropenia (all patients, Example 1 data): 14 % of patients
Grade 3/4 thrombocytopenia (all patients, Example 1 data): 25 % of patients
Grade 3/4 neutropenia considered related (all subjects): 10%
Grade 3/4 thrombocytopenia considered related (all subjects): 24%
Abdominal pain, Severity Grade 1- [1]: 6 (10.2%) subjects (%)
Abdominal pain, Severity Grade 3-4 [1]: 0 subjects (%)
Alanine aminotransferase increased, Severity Grade 1- [1]: 11 subjects (%)
Alanine aminotransferase increased, Severity Grade 3-4 [1]: 4 (6.8%) subjects (%)
Anorexia, Severity Grade 1- [1]: 8 (13.6%) subjects (%)
Anorexia, Severity Grade 3-4 [1]: 0 subjects (%)
Aspartate aminotransferase increased, Severity Grade 1- [1]: 15 subjects (%)
Aspartate aminotransferase increased, Severity Grade 3-4 [1]: 1 (1.7%) subjects (%)
Blood alkaline phosphatase increased, Severity Grade 1- [1]: 10 subjects (%)
Blood alkaline phosphatase increased, Severity Grade 3-4 [1]: 0 subjects (%)
Blood creatinine increased, Severity Grade 1- [1]: 14 subjects (%)
Blood creatinine increased, Severity Grade 3-4 [1]: 0 subjects (%)
Diarrhea, Severity Grade 1- [1]: 32 subjects (%)
Diarrhea, Severity Grade 3-4 [1]: 6 (10.2%) subjects (%)
Dry skin, Severity Grade 1- [1]: 6 (10.2%) subjects (%)
Dry skin, Severity Grade 3-4 [1]: 0 subjects (%)
Edema peripheral, Severity Grade 1- [1]: 6 (10.2%) subjects (%)
Edema peripheral, Severity Grade 3-4 [1]: 0 subjects (%)
Hyperlipasemia, Severity Grade 1- [1]: 10 subjects (%)
Hyperlipasemia, Severity Grade 3-4 [1]: 6 (10.2%) subjects (%)
Hypocalcemia, Severity Grade 1- [1]: 7 (11.9%) subjects (%)
Hypocalcemia, Severity Grade 3-4 [1]: 1 (1.7%) subjects (%)
Nausea, Severity Grade 1- [1]: 39 subjects (%)
Nausea, Severity Grade 3-4 [1]: 2 (3.4%) subjects (%)
Neutropenia, Severity Grade 1-2 [1]: 2 (3.4%) subjects (%)
Neutropenia, Severity Grade 3-4 [1]: 6 (10.2%) subjects (%)
Skin exfoliation, Severity Grade 1- [1]: 8 (13.6%) subjects (%)
Skin exfoliation, Severity Grade 3-4 [1]: 0 subjects (%)
Thrombocytopenia, Severity Grade 1-2 [1]: 10 (17.0%) subjects (%)
Thrombocytopenia, Severity Grade 3-4 [1]: 14 (23.7%) subjects (%)
Vomiting, Severity Grade 1- [1]: 32 subjects (%)
Vomiting, Severity Grade 3-4 [1]: 2 (3.4%) subjects (%)
Anemia, Severity Grade 1-2 [2]: 3 (8.1%) subjects (%)
Anemia, Severity Grade 3-4 [2]: 13 (35.1%) subjects (%)
Abdominal pain, Severity Grade 1-2 [3]: 4 (10.0%) subjects (%)
Abdominal pain, Severity Grade 3- [3]: 0 subjects (%)
Alanine aminotransferase increased, Severity Grade 1-2 [3]: 9 (22.5%) subjects (%)
Alanine aminotransferase increased, Severity Grade 3- [3]: 3 (7.5%) subjects (%)
Anorexia, Severity Grade 1-2 [3]: 6 (15.0%) subjects (%)
Anorexia, Severity Grade 3- [3]: 0 subjects (%)
Aspartate aminotransferase increased, Severity Grade 1-2 [3]: 13 subjects (%)
Aspartate aminotransferase increased, Severity Grade 3- [3]: 1 (2.5%) subjects (%)
Blood alkaline phosphatase increased, Severity Grade 1-2 [3]: 9 (22.5%) subjects (%)
Blood alkaline phosphatase increased, Severity Grade 3- [3]: 0 subjects (%)
Blood creatinine increased, Severity Grade 1-2 [3]: 11 subjects (%)
Blood creatinine increased, Severity Grade 3- [3]: 0 subjects (%)
Diarrhea, Severity Grade 1-2 [3]: 25 subjects (%)
Diarrhea, Severity Grade 3- [3]: 5 subjects (%)
Dry skin, Severity Grade 1-2 [3]: 6 (15%) subjects (%)
Dry skin, Severity Grade 3- [3]: 0 subjects (%)
Edema peripheral, Severity Grade 1-2 [3]: 4 (10.0%) subjects (%)
Edema peripheral, Severity Grade 3- [3]: 0 subjects (%)
Hyperlipasemia, Severity Grade 1-2 [3]: 9 (22.5%) subjects (%)
Hyperlipasemia, Severity Grade 3- [3]: 6 subjects (%)
Hypocalcemia, Severity Grade 1-2 [3]: 6 (15.0%) subjects (%)
Hypocalcemia, Severity Grade 3- [3]: 1 (2.5%) subjects (%)
Nausea, Severity Grade 1-2 [3]: 31 subjects (%)
Nausea, Severity Grade 3- [3]: 2 (5.0%) subjects (%)
Neutropenia, Severity Grade 1-2 [3]: 2 (5.0%) subjects (%)
Neutropenia, Severity Grade 3-4 [3]: 4 (10.0%) subjects (%)
Skin exfoliation, Severity Grade 1-2 [3]: 8 (20.0%) subjects (%)
Skin exfoliation, Severity Grade 3- [3]: 0 subjects (%)
Thrombocytopenia, Severity Grade 1-2 [3]: 8 (20.0%) subjects (%)
Thrombocytopenia, Severity Grade 3-4 [3]: 11 (27.5%) subjects (%)
Vomiting, Severity Grade 1-2 [3]: 27 subjects (%)
Vomiting, Severity Grade 3- [3]: 1 (2.5%) subjects (%)
Anemia, Severity Grade 1-2 [4]: 2 (8.3%) subjects (%)
Anemia, Severity Grade 3-4 [4]: 13 (54.2%) subjects (%)
grade 3 diarrhea [5]: 13 % of subjects
grade 3 nausea [5]: 5 % of subjects
grade 3 vomiting [5]: 3 % of subjects
grade 3 diarrhea [6]: 10 % of subjects
grade 3 nausea [6]: 3 % of subjects
grade 3 vomiting [6]: 3 % of subjects
subjects discontinued because of adverse events (extension study, 43 subjects, after 24 to 46 weeks on therapy): 3
subjects discontinued for treatment-related adverse events (first 6 cycles of therapy, 59 subjects): 6
diarrhea Gr3 [7]: 3
nausea Gr3 [7]: 1
vomiting Gr3 [7]: 1
discontinuation: adverse event (MTD (initiated at 680 or 800 mg/day), 40 enrolled): 5
discontinuation: adverse event (Overall, 59 enrolled): 6
Grade 3/4 anemia considered related (of 37 subjects who were not transfusion dependent at baseline): 35%
maximum tolerated dose (MTD) (oral once daily, dose cohorts 30 to 800 mg per day): 680 mg/day
Grades 3/4 asymptomatic increase in ALT (overall): 7%
Grades 3/4 asymptomatic increase in AST (overall): 2%
Grades 3/4 asymptomatic increase in alkaline phosphatase (overall): 0%
Grades 3/4 asymptomatic increase in creatinine (overall): 0%
Grades 3/4 asymptomatic increase in serum lipase (overall): 10%
Gr1/2 serum creatinine elevation [8]: 38%
Gr1/2 transaminitis [8]: 38%
Gr3 neutropenia [8]: 15%
Gr3 thrombocytopenia [8]: 20%
Gr4 neutropenia [8]: 0%
Gr4 thrombocytopenia [8]: 10%
asymptomatic hyperlipasemia [8]: 33%
dose-limiting toxicity (DLT) (seen at 800 mg/day, dihydrochloride monohydrate): asymptomatic grade 3 or 4 amylasemia/lipasemia that was reversible; also recorded: asymptomatic grade 3 or 4 hyperamylasemia (with or without hyperlipasemia) that was reversible
Grade 3 anemia [9]: 42 % of patients
Grade 4 anemia [9]: 8 % of patients
serious adverse event Neutropenia, CTCAE Severity Grade (subject 101-047, 680/680 mg/day, onset day 52, recovered/resolved): 2
serious adverse event Depression, CTCAE Severity Grade (subject 104-015, 360/520 mg/day, onset day 256, permanently discontinued, not recovered/not resolved): 3*
serious adverse event Hyperlipasemia, CTCAE Severity Grade (subject 105-013, 240/0 mg/day, onset day 356, recovered/resolved): 4
serious adverse event Thrombocytopenia, CTCAE Severity Grade (subject 105-013, starting dose/dose at event 240/360 mg/day, onset day 215, recovered/resolved): 4
serious adverse event Gallbladder pain, CTCAE Severity Grade (subject 105-056, 680/520 mg/day, onset day 95, recovered/resolved with sequelae): 3
serious adverse event Cerebrovascular accident, CTCAE Severity Grade (subject 105-056, 680/680 mg/day, onset day 22, recovered/resolved): 4
serious adverse event Hyperlipasemia, CTCAE Severity Grade (subject 105-059, 680/520 mg/day, onset day 28, recovered/resolved): 3
serious adverse event Hyperlipasemia, CTCAE Severity Grade (subject 105-059, 680/680 mg/day, onset day 8, recovered/resolved): 3
serious adverse event Dehydration, CTCAE Severity Grade (subject 106-024, 800/400 mg/day, onset day 474, recovered/resolved): 3
serious adverse event Tumor lysis syndrome, CTCAE Severity Grade (subject 106-024, 800/440 mg/day, onset day 366, recovered/resolved): 3
serious adverse event Dehydration, CTCAE Severity Grade [10]: 2
serious adverse event Diarrhea, CTCAE Severity Grade [10]: 3
serious adverse event Nausea, CTCAE Severity Grade [10]: 2
serious adverse event Vomiting, CTCAE Severity Grade [10]: 2
serious adverse event Pleuritic pain, CTCAE Severity Grade (subject 106-033, 680/680 mg/day, onset day 8, recovered/resolved): 2
serious adverse event Dehydration, CTCAE Severity Grade (subject 106-045, 680/440 mg/day, onset day 170, recovered/resolved): 3
cytokine rebound upon discontinuation without prior dose reduction or tapering (subjects that were discontinued): did not experience “cytokine rebound”
emergence of transfusion requirement (subjects who initiated treatment at 680 mg/day): 72%
emergence of transfusion requirement (subjects who initiated treatment at 240-520 mg/day): 33%
ALT increased Grade 2 [11]: 8 (20%) subjects (%)
ALT increased Grade 3 [11]: 2 (5%) subjects (%)
ALT increased Grade 4 [11]: 0 subjects (%)
AST increased Grade 2 [11]: 5 (13%) subjects (%)
AST increased Grade 3 [11]: 1 (3%) subjects (%)
AST increased Grade 4 [11]: 0 subjects (%)
Creatinine increased Grade 2 [11]: 11 (28%) subjects (%)
Creatinine increased Grade 3 [11]: 0 subjects (%)
Creatinine increased Grade 4 [11]: 0 subjects (%)
Hyperamylasemia Grade 2 [11]: 0 subjects (%)
Hyperamylasemia Grade 3 [11]: 1 (3%) subjects (%)
Hyperamylasemia Grade 4 [11]: 1 (3%) subjects (%)
Hyperkalemia Grade 2 [11]: 3 (8%) subjects (%)
Hyperkalemia Grade 3 [11]: 2 (5%) subjects (%)
Hyperkalemia Grade 4 [11]: 1 (3%) subjects (%)
Hyperlipasemia Grade 2 [11]: 4 (10%) subjects (%)
Hyperlipasemia Grade 3 [11]: 3 (8%) subjects (%)
Hyperlipasemia Grade 4 [11]: 2 (5%) subjects (%)
Hypocalcemia Grade 2 [11]: 8 (20%) subjects (%)
Hypocalcemia Grade 3 [11]: 3 (8%) subjects (%)
Hypocalcemia Grade 4 [11]: 0 subjects (%)
Abdominal pain Grade 1 [12]: 5 (13%) subjects (%)
Abdominal pain Grade 2 [12]: 0 subjects (%)
Abdominal pain Grade 3 [12]: 0 subjects (%)
Abdominal pain Grade 4 [12]: 0 subjects (%)
Anorexia Grade 1 [12]: 7 (18%) subjects (%)
Anorexia Grade 2 [12]: 0 subjects (%)
Anorexia Grade 3 [12]: 1 (3%) subjects (%)
Anorexia Grade 4 [12]: 0 subjects (%)
Constipation Grade 1 [12]: 6 (15%) subjects (%)
Constipation Grade 2 [12]: 1 (3%) subjects (%)
Constipation Grade 3 [12]: 0 subjects (%)
Constipation Grade 4 [12]: 0 subjects (%)
Contusion Grade 1 [12]: 5 (13%) subjects (%)
Contusion Grade 2 [12]: 0 subjects (%)
Contusion Grade 3 [12]: 0 subjects (%)
Contusion Grade 4 [12]: 0 subjects (%)
Diarrhea Grade 1 [12]: 21 (53%) subjects (%)
Diarrhea Grade 2 [12]: 4 (10%) subjects (%)
Diarrhea Grade 3 [12]: 5 (13%) subjects (%)
Diarrhea Grade 4 [12]: 0 subjects (%)
Edema peripheral Grade 1 [12]: 7 (18%) subjects (%)
Edema peripheral Grade 2 [12]: 1 (3%) subjects (%)
Edema peripheral Grade 3 [12]: 0 subjects (%)
Edema peripheral Grade 4 [12]: 0 subjects (%)
Fatigue Grade 1 [12]: 2 (5%) subjects (%)
Fatigue Grade 2 [12]: 3 (8%) subjects (%)
Fatigue Grade 3 [12]: 1 (3%) subjects (%)
Fatigue Grade 4 [12]: 0 subjects (%)
Headache Grade 1 [12]: 4 (10%) subjects (%)
Headache Grade 2 [12]: 1 (3%) subjects (%)
Headache Grade 3 [12]: 0 subjects (%)
Headache Grade 4 [12]: 0 subjects (%)
Nausea Grade 1 [12]: 20 (50%) subjects (%)
Nausea Grade 2 [12]: 6 (15%) subjects (%)
Nausea Grade 3 [12]: 2 (5%) subjects (%)
Nausea Grade 4 [12]: 0 subjects (%)
Neutropenia Grade 3 [12]: 6 (15%) subjects (%)
Neutropenia Grade 4 [12]: 0 subjects (%)
Proteinuria Grade 1 [12]: 2 (5%) subjects (%)
Proteinuria Grade 2 [12]: 3 (8%) subjects (%)
Proteinuria Grade 3 [12]: 0 subjects (%)
Proteinuria Grade 4 [12]: 0 subjects (%)
Thrombocytopenia Grade 3 [12]: 8 (20%) subjects (%)
Thrombocytopenia Grade 4 [12]: 5 (13%) subjects (%)
Vomiting Grade 1 [12]: 20 (50%) subjects (%)
Vomiting Grade 2 [12]: 7 (18%) subjects (%)
Vomiting Grade 3 [12]: 1 (3%) subjects (%)
Vomiting Grade 4 [12]: 0 subjects (%)
